Among the data in patent US8445674B2, “Heterocyclyl compounds” (Hoffmann-La Roche Inc, priority 2009, dated 2013) are IC50 values, retold here.

pIC50: −log10 of the molar value.

In this experiment the target is T1, human chemokine receptor 2 isoform B (Homo sapiens, UniProt P41597).
T1 construct: host or cells: CHOK1-CCR2B-A5 cells (CHO-K1)
T1 sequence (P41597 1-360 isoform P41597-2): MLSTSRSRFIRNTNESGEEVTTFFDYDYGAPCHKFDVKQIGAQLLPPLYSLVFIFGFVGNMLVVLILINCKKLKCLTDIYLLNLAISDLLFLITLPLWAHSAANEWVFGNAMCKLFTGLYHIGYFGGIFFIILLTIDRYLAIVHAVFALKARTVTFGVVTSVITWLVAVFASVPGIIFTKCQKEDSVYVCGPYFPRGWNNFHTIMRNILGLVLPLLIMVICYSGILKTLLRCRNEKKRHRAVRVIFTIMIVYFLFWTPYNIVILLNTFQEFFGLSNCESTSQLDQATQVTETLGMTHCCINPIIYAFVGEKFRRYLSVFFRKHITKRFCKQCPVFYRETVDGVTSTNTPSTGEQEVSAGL
Description: Calcium mobilization assay (FLIPR, antagonist activity against MCP-1). Format: cell-based. The following applies: Ca mobilisation assay, CHOK1-CCR2B-A5 cells, inhibition of calcium increase induced by 20 nM MCP-1. As to the method: Calcium Mobilization Assay
CHOK1-CCR2B-A5 cells (from Euroscreen) stably overexpressing the human chemokine receptor 2 isoform B were cultured in Nutrient Hams F12 medium supplemented with 5% FBS, 100 U/ml penicillin, 100 μg/ml streptomycin, 400 μg/ml G418 and 5 μg/ml puromycin.
For the assay cells were grown overnight in 384-well black clear flat bottom polystyrene plates (Costar) at 37° C. at 5% CO2. After washing with DMEM, 20 mM Hepes, 2.5 mM probenecid, 0.1% BSA (DMEM assay buffer) cells were loaded with 4 μM Fluo-4 in the same DMEM assay buffer for 2 hours at 30° C. Excess dye was removed and cells were washed with DMEM assay buffer. 384-well compound plates were prepared with DMEM assay buffer/0.5% DMSO with or without various concentrations of test compounds. Usually compounds were tested for agonist and antagonist activity.
Test compounds were added to the assay plate and agonist activity was monitored as fluorescence for 80 seconds with a FLIPR (488 nm excitation; 510-570 nm emission; Molecular Devices). After 20-30 min. of incubation at 30° C., 20 nM MCP-1 (R&D; Roche) was added and fluorescence was monitored again for 80 seconds. Increases in intracellular calcium are reported as maximum fluorescence after agonist exposure minus basal fluorescence before exposure. Antagonist activity is indicated as inhibitor concentration required for 50% inhibition of specific calcium increases.

A word on the pIC50: it is the negative decadic logarithm of the IC50, by convention in mol/L. Turning to `C[C@H]1C(=O)N(C[C@H](O)CC(=O)N2CCC3(CC3)[C@H](O)C2)CCN1C(=O)Nc1ccc(C(F)(F)F)c(Cl)c1` [Example 43, (S)-4-[(R)-2-Hydroxy-4-((S)-4-hydroxy-6-aza-spiro[2.5]oct-6-yl)-4-oxo-butyl]-2-methyl-3-oxo-piperazine-1-carboxylic acid (3-chloro-4-trifluoromethyl-phenyl)-amide], the pIC50 is 8.40. The figure for `O=C(/C=C/c1ccc(Cl)c(Cl)c1)N1CCC(=O)N(CCC(=O)N2CCC(CO)CC2)CC1` [Example 69, 1-[(E)-3-(3,4-Dichloro-phenyl)-acryloyl]-4-[3-(4-hydroxymethyl-piperidin-1-yl)-3-oxo-propyl]-[1,4]diazepan-5-one] is 6.32; for `CC1(CO)CCN(C(=O)CCN2CCN(C(=O)/C=C/c3ccc(Cl)c(Cl)c3)CCC2=O)CC1` [Example 87, 1-[(E)-3-(3,4-Dichloro-phenyl)-acryloyl]-4-[3-(4-hydroxymethyl-4-methyl-piperidin-1-yl)-3-oxo-propyl]-[1,4]diazepan-5-one] it is 6.47; for `C[C@H]1C(=O)N(CCCC(=O)N2CCC3(CC3)[C@H](O)C2)CCN1c1ccc(C(F)(F)F)c(C(F)(F)F)c1` [Example 130, (S)-4-(3,4-Bis-trifluoromethyl-phenyl)-1-[4-((S)-4-hydroxy-6-aza-spiro[2.5]oct-6-yl)-4-oxo-butyl]-3-methyl-piperazin-2-one] it is 7.43.

On to `COC(=O)[C@H](CCC(=O)N1CCC2(CC2)[C@H](O)C1)N1CCN(c2ccc(C(F)(F)F)c(Cl)c2)CCC1=O` [Example 123, (S)-2-[4-(3-Chloro-4-trifluoromethyl-phenyl)-7-oxo-[1,4]diazepan-1-yl]-5-((S)-4-hydroxy-6-aza-spiro[2.5]oct-6-yl)-5-oxo-pentanoic acid methyl ester], for which the pIC50 was 7.20.

`C[C@H]1C(=O)N(CCCC(=O)N2CCC3(CC3)[C@H](O)C2)CCN1C(=O)Nc1ccc(C(F)(F)F)cc1` [Example 29, (S)-4-[4-((S)-4-Hydroxy-6-aza-spiro[2.5]oct-6-yl)-4-oxo-butyl]-2-methyl-3-oxo-piperazine-1-carboxylic acid (4-trifluoromethyl-phenyl)-amide]: the pIC50 is 7.69. The same measure for `C[C@H]1C(=O)N([C@@H](CCC(=O)N2CCC3(CC3)[C@H](O)C2)C(=O)O)CCN1C(=O)Nc1ccc(OC(F)(F)F)c(Cl)c1` [Example 56, Lithium; (S)-2-[(S)-4-(3-chloro-4-trifluoromethoxy-phenylcarbamoyl)-3-methyl-2-oxo-piperazin-1-yl]-5-((S)-4-hydroxy-6-aza-spiro[2.5]oct-6-yl)-5-oxo-pentanoate]: 6.41; for `C[C@H]1C(=O)N(CCCC(=O)N2CCC(C(F)(F)F)CC2)CCN1C(=O)Nc1cccc(Cl)c1` [Example 106, (S)-2-Methyl-3-oxo-4-[4-oxo-4-(4-trifluoromethyl-piperidin-1-yl)-butyl]-piperazine-1-carboxylic acid (3-chloro-phenyl)-amide]: 5.51; for `COC[C@H](CCC(=O)N1CCC2(CC2)[C@H](O)C1)N1CCN(c2ccc(C(F)(F)F)c(Cl)c2)[C@@H](C)C1=O` [Example 132, (S)-4-(3-Chloro-4-trifluoromethyl-phenyl)-1-[(S)-4-((S)-4-hydroxy-6-aza-spiro[2.5]oct-6-yl)-1-methoxymethyl-4-oxo-butyl]-3-methyl-piperazin-2-one]: 6.51. As to `O=C1CCN(C(=O)Nc2ccc(Cl)c(Cl)c2)CCN1CCCC(=O)N1CCC2(CC2)[C@H](O)C1` [Example 117, 4-[4-((S)-4-Hydroxy-6-aza-spiro[2.5]oct-6-yl)-4-oxo-butyl]-5-oxo-[1,4]diazepane-1-carboxylic acid (3,4-dichloro-phenyl)-amide], the pIC50 is 7.69.
